The record followed here is ChEMBL document CHEMBL1157703, “Synthesis, pharmacological studies and molecular modeling of some tetracyclic 1,3-diazepinium chlorides” (Bioorg Med Chem, 2010).

Calls of active or inactive are those of the source. No cut-off for these calls is given here.

Series [1] is filed under the species Mus musculus. Nature of the series: Effect on behavioral activity in Albino mouse assessed as inhibition of diazepam-induced ataxia at 0.2 ml/10 g after 5 mins by hippocratic screen. Format: functional, organism-based.
For series [2], the species on record is Mus musculus. Nature of the series: Effect on behavioral activity in Albino mouse assessed as inhibition of diazepam-induced paralysis at 0.2 ml/10 g by hippocratic screen. Format: functional, organism-based.
For series [3], the species on record is Mus musculus. In words: Effect on behavioral activity in Albino mouse assessed as inhibition of diazepam-induced decrease in respiratory rate at 0.2 ml/10 g by hippocratic screen. It is filed as functional, organism-based.
Series [4] is filed under the species Mus musculus. Nature of the series: CNS toxicity in Albino mouse assessed as change in respiratory rate at 0.2 ml/10 g by hippocratic screen. It is filed as organism-based. Particulars: in vivo.
The species named for series [5] is Mus musculus. Nature of the series: CNS toxicity in Albino mouse assessed as ataxia at 0.2 ml/10 g by hippocratic screen. Format: organism-based. The settings on record: in vivo.
The subject of series [6] is Mus musculus. Nature of the series: CNS toxicity in Albino mouse assessed as anesthetic response at 0.2 ml/10 g by hippocratic screen. It is filed as organism-based. The settings on record: in vivo.
For series [7], the species on record is Mus musculus. In words: Effect on behavioral activity in Albino mouse assessed as inhibition of diazepam-induced decrease in motor activity at 0.2 ml/10 g for 10 to 15 mins by hippocratic screen. It is filed as functional, organism-based.
For series [8], the species on record is Mus musculus. Nature of the series: CNS toxicity in Albino mouse assessed as loss of righting reflex at 0.2 ml/10 g by hippocratic screen. It is filed as organism-based. The settings on record: in vivo.
The species named for series [9] is Mus musculus. In words: Effect on behavioral activity in Albino mouse assessed as inhibition of diazepam-induced anesthesia at 0.2 ml/10 g by hippocratic screen. Format: functional, organism-based.
Series [10] is filed under the species Mus musculus. Nature of the series: CNS toxicity in Albino mouse assessed as loss of screen grip at 0.2 ml/10 g by hippocratic screen. Format: organism-based. The settings on record: in vivo.
The species named for series [11] is Mus musculus. In words: Effect on behavioral activity in Albino mouse assessed as inhibition of diazepam-induced tremors at 0.2 ml/10 g by hippocratic screen. Format: functional, organism-based.
For series [12], the species on record is Mus musculus. In words: CNS toxicity in Albino mouse assessed as paralysis at 0.2 ml/10 g by hippocratic screen. It is filed as organism-based. The settings on record: in vivo.
For series [13], the species on record is Mus musculus. In words: Effect on behavioral activity in Albino mouse assessed as inhibition of diazepam-induced loss of analgesia at 0.2 ml/10 g by hippocratic screen. It is filed as functional, organism-based.
For series [14], the species on record is Mus musculus. In words: Effect on behavioral activity in Albino mouse assessed as inhibition of diazepam-induced loss of righting reflex at 0.2 ml/10 g after 1 hr by hippocratic screen. It is filed as functional, organism-based.
Series [15] is filed under the species Mus musculus. In words: CNS toxicity in Albino mouse assessed as loss of analgesic activity at 0.2 ml/10 g by hippocratic screen. It is filed as organism-based. The settings on record: in vivo.
The species named for series [16] is Mus musculus. In words: Effect on behavioral activity in Albino mouse assessed as inhibition of diazepam-induced pinnal reflex at 0.2 ml/10 g by hippocratic screen. Format: functional, organism-based.
The species named for series [17] is Mus musculus. Nature of the series: Effect on behavioral activity in Albino mouse assessed as inhibition of diazepam-induced startle reaction at 0.2 ml/10 g by hippocratic screen. Format: functional, organism-based.
Series [18] is filed under the species Mus musculus. In words: CNS toxicity in Albino mouse assessed as startle reaction at 0.2 ml/10 g by hippocratic screen. Format: organism-based. The settings on record: in vivo.
Series [19] is filed under the species Mus musculus. In words: CNS toxicity in Albino mouse assessed as tremors at 0.2 ml/10 g by hippocratic screen. It is filed as organism-based. The settings on record: in vivo.
For series [20], the species on record is Mus musculus. In words: CNS toxicity in Albino mouse assessed as decrease in motor activity at 0.2 ml/10 g by hippocratic screen. It is filed as organism-based. The settings on record: in vivo.
The species entered for series [21] is Mus musculus. In words: CNS toxicity in Albino mouse assessed as pinnal reflex at 0.2 ml/10 g by hippocratic screen. Particulars: in vivo. Format: organism-based.
The species entered for series [22] is Mus musculus. Nature of the series: Effect on behavioral activity in Albino mouse assessed as inhibition of diazepam-induced loss of righting reflex at 0.2 ml/10 g after 2 hrs by hippocratic screen. Format: functional, organism-based.
For series [23], the species on record is Mus musculus. In words: Effect on behavioral activity in Albino mouse assessed as inhibition of diazepam-induced loss of screen grip at 0.2 ml/10 g by hippocratic screen. It is filed as functional, organism-based.
The target of series [24] is Sodium-dependent noradrenaline transporter (Homo sapiens) (UniProt P23975). Nature of the series: Inhibition of NET PDSP analysis.
Chain of Sodium-dependent noradrenaline transporter (Homo sapiens) (P23975 whole entry): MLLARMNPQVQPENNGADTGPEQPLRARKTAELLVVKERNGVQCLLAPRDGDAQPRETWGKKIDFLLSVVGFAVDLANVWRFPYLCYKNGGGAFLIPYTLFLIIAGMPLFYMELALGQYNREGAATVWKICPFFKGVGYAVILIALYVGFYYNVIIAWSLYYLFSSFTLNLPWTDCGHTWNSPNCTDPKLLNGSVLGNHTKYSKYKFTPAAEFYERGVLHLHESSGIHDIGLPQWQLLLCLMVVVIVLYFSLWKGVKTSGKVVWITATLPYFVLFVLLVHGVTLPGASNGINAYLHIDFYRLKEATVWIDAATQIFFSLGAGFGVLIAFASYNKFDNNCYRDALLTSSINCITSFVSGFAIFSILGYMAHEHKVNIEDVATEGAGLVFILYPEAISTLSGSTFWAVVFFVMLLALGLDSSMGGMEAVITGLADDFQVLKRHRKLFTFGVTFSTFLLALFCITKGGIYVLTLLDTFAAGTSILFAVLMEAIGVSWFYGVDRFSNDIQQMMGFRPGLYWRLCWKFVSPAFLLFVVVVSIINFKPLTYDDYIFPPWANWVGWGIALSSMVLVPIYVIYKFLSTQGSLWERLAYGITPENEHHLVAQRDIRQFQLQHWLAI
The species entered for series [25] is Mus musculus. In words: Effect on behavioral activity in Albino mouse assessed as inhibition of diazepam-induced decrease in motor activity at 0.2 ml/10 g for 2 hrs by hippocratic screen. Format: functional, organism-based.
For series [26], the species on record is Mus musculus. Nature of the series: Effect on behavioral activity in Albino mouse assessed as inhibition of diazepam-induced ataxia at 0.2 ml/10 g for 15 mins by hippocratic screen. Format: functional, organism-based.
The target in series [27] is Sodium-dependent dopamine transporter (Homo sapiens) (UniProt Q01959).
Chain of Sodium-dependent dopamine transporter (Homo sapiens) (Q01959 whole entry): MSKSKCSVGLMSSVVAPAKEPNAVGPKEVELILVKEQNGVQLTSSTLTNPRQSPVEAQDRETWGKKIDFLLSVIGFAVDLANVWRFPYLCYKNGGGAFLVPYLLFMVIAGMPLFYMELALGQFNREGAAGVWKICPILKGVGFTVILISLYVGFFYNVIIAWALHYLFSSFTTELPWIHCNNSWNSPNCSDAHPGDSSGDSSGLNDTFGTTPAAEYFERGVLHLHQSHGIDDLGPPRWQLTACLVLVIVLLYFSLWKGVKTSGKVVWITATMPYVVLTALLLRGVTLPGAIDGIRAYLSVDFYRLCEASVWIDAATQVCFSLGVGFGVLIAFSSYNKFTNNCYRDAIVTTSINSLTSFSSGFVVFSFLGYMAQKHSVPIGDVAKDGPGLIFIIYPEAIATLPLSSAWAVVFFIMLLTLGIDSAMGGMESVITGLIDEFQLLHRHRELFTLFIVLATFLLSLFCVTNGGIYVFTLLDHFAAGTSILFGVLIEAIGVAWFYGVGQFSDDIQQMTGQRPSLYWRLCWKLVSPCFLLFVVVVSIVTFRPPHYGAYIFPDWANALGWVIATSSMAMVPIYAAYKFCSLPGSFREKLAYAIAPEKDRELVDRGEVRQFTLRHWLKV
Description: Inhibition of DAT PDSP analysis
Series [28] has as its target Sodium-dependent serotonin transporter (Homo sapiens) (UniProt P31645). Nature of the series: Inhibition of SERT PDSP analysis. Also noted: scale not given: the % may be the effect or the level left.

Chain of Sodium-dependent serotonin transporter (Homo sapiens) (P31645 whole entry, looked up): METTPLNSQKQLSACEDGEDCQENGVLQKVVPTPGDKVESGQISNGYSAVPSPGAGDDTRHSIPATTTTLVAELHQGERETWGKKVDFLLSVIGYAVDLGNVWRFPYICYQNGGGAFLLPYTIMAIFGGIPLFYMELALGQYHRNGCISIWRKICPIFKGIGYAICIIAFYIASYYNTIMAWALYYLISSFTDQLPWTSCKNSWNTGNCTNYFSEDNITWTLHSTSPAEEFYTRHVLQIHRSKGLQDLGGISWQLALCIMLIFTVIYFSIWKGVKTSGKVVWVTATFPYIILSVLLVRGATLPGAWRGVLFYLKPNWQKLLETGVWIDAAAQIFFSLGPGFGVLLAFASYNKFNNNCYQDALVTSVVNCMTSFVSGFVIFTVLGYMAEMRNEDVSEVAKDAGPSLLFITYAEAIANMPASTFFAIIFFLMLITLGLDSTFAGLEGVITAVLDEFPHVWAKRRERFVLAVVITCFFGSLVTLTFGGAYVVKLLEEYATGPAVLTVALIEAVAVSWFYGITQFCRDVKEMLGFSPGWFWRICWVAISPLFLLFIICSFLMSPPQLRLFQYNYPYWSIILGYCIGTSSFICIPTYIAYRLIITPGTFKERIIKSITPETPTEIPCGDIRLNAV

In the case of `COc1ccc2c3c(oc2c1)C(=O)Nc1cc(C)cc[n+]1C3.[Cl-]`, the outcome in the series filed under Mus musculus [1], in the series listed under Mus musculus [2], in the series listed under Mus musculus [3], in the series listed under Mus musculus [9], in the series filed under Mus musculus [11] and in the series listed under Mus musculus [13] was inactive. For the same molecule, the outcome in the series listed under Mus musculus [16], in the series listed under Mus musculus [17], in the series filed under Mus musculus [22] and in the series filed under Mus musculus [23] was inactive. Also, the Activity entry in the series filed under Mus musculus [4], in the series filed under Mus musculus [5], in the series on Mus musculus [6], in the series filed under Mus musculus [8], in the series filed under Mus musculus [10] and in the series listed under Mus musculus [12] was “Non-toxic” throughout. Besides, the Activity result in the series filed under Mus musculus [15], in the series filed under Mus musculus [18], in the series listed under Mus musculus [19], in the series listed under Mus musculus [20] and in the series filed under Mus musculus [21] was “Non-toxic” each time. Besides, the outcome in the series filed under Mus musculus [7] and in the series listed under Mus musculus [14] was Active.
The molecule `NC[C@H](O)c1ccc(O)c(O)c1` came in with a Ki in series [24] of over 10 µM.
`COc1ccc2c3c(oc2c1)C(=O)Nc1cccc(C)[n+]1C3.[Cl-]`: the outcome in the series listed under Mus musculus [2], in the series listed under Mus musculus [3], in the series filed under Mus musculus [9], in the series listed under Mus musculus [11], in the series filed under Mus musculus [13] and in the series filed under Mus musculus [16] was inactive. Also, the outcome in the series listed under Mus musculus [17], in the series listed under Mus musculus [22] and in the series filed under Mus musculus [23] was inactive. Moreover, the Activity result in the series filed under Mus musculus [4], in the series filed under Mus musculus [5], in the series on Mus musculus [6], in the series listed under Mus musculus [8], in the series filed under Mus musculus [10] and in the series listed under Mus musculus [12] was “Non-toxic” each time. Besides, the Activity entry in the series listed under Mus musculus [15], in the series filed under Mus musculus [18], in the series filed under Mus musculus [19], in the series listed under Mus musculus [20] and in the series listed under Mus musculus [21] was “Non-toxic” throughout. The outcome in the series listed under Mus musculus [25] and in the series listed under Mus musculus [26] was Active.
Take `NCCc1ccc(O)c(O)c1`: the Ki in series [27] is over 10 µM.
Regarding `NCCc1c[nH]c2ccc(O)cc12`, in [28], the Activity is over 10000%.
